In US12139735B2, “Cell culture process” (Momenta Pharmaceuticals, Inc., priority 2011, dated 2024):

Key:
[1] = test system: K1 and K2 lysine residues; assay: Additional culture data: levels of K1/K2 lysine residues of the antibody produced; assay type: cell-based; conditions: included in culture media, compared to controls
CL320 CHO cells = assay: Growth (VCD), viability and antibody titer of the culture with supplemented feed; assay type: cell-based; conditions: addition of 10 mg/L (so in the source)
Protocol: The carboxyl-terminal lysine residues of a model antibody produced by CHO cells were analyzed. […] […] On Day 5, 10 g/L cottonseed hydrolysate was added. VCD and viability were assessed, and cells were harvested on Day 10. The antibodies produced under the various conditions were evaluated for titer and C-terminal lysine by ion exchange chromatography.

Compound	levels of K1 and K2 lysine residues [1]	effect on growth (CL320 CHO cells)	effect on titers (CL320 CHO cells)	effect on viability (CL320 CHO cells)
Cl.N [NH4Cl, ammonium chloride]	increased			
N=C(N)NCCC[C@H](N)C(=O)O [L-Arg, L-arginine]		did not affect	did not affect	did not affect
NCCCC[C@H](N)C(=O)O [L-Lys, L-lysine]		did not affect	did not affect	did not affect
